How the values were obtained:
microglial progenitors = assay: Proliferation of microglial progenitors; type: cell-based; settings: 10 μM
Method: • (1) On the 0th day, ESCs were digested with Accutase into single cells, counted and inoculated into a V-bottom 96-well plate at a concentration of 10,000/well, and cultured statically. • (2) From the 0th to 4th day, the medium was microglial induction medium: DMEM/F12, 20% KOSR, 1× Glutamax, 1×NEAA, 50 ng/ml BMP4, 50 ng/ml VEGF, 20 ng/ml SCF, 10 μM Y-27632. • (3) On the 4th day, the suspended EBs were subjected to adherent culture in a 6-well plate, the culture medium was changed on the 4th day and then the static culture was carried out until the 11th day. From the 4th to 11th day, the culture medium was microglial differentiation medium: X-VIVO15, 1× Glutamax, 25 ng/ml IL-34, 50 ng/ml M-CSF. At this stage, Blebbistatin was added at a concentration of 10 μM. • (4) On the 11th day, the single cells suspended in the medium were collected and counted, and the EBs were continued to be cultured with the microglial differentiation medium, and the suspended cells in the supernatant were collected every 7 days for a total of 3 collections. • (5) Maturation of microglial cells: The supernatant was discarded after centrifugation, the cells were resuspended in a microglial maturation medium and inoculated on Matrigel pre-coated culture plates. The microglial cells matured after being continuously cultured for 14 days. […]

GABA progenitor cells = assay: Proliferation of GABA progenitor cells; type: cell-based, human; settings: 10 μM, P4 to P5, versus control group
Method: (§1) (1) hESCs were cultured and differentiation was conducted until about 80% confluence. On the 0th day, the cells were dissociated with Dispase (1 U/mL), and the bottom cell mass was harvested and spread on an ultra-low adsorption 10 cm culture dish.
(2) From the 1st day, the neural induction was started by using NIM medium supplemented with 100 nM LDN193189, 10 μM SB431542, and 2 μM XAV939. […]

astrocytes = assay: Expansion experiment of astrocytes; type: cell-based, human; settings: 10 μM, P2 to P6, versus control group
Method: as §1, with “plated in” for “spread on”, “dish. • (2) From the 1st day, the neural induction was started by replacing with NIM medium supplemented with neural induction molecules 100 nM LDN193189 and 10 μM SB431542. […]” for “dish.”

NSCs = assay: Proliferation of neural stem cells; type: cell-based, human; settings: 10 μM, P4 to P6
Method: The differentiation method was referred to Tchieu et al., A Modular Platform for Differentiation of Human PSCs into All Major Ectodermal Lineages. 2017, Cell Stem Cell 21, 399-410.
NSCs were cultured with expansion medium after adherence, DMEM/F12 (1×, Gibco) supplemented with […] human (EGF) (R&D), […] (bFGF) (R&D), 5 μg/ml Heparin (Sigma), 2% B27 (Gibco), 1× GlutaMAX, and 10 μM Blebbistatin was added to the experimental group. Half of the culture medium was changed every day.

Cc1ccc2c(c1)C(=O)[C@]1(O)CCN(c3ccccc3)C1=N2 [Blebbistatin, (S)-(−)-Blebbistatin]
proliferation of microglial progenitors and differentiation efficiency (microglial progenitors): could promote the proliferation of microglial progenitors and improve the differentiation efficiency | number of suspension cells collected (microglial progenitors; first two collections, versus control group): increased significantly | expansion ability of GABA progenitor cells (GABA progenitor cells): significantly improved | expansion ability of astrocytes (astrocytes): significantly improved | expansion of NSCs (NSCs): significantly promoted the expansion of NSCs

From US20230323293A1, “EXPANSION CULTURE MEDIUM AND CULTURE METHOD FOR NEURAL CELLS” (INSTITUTE OF ZOOLOGY, CHINESE ACADEMY OF SCIENCES, priority 2020, published 2023)
